Measurements reported in article PMC9963659, “Novel 2-Thiouracil-5-Sulfonamide Derivatives: Design, Synthesis, Molecular Docking, and Biological Evaluation as Antioxidants with 15-LOX Inhibition” (Molecules, 2023).
Several values for one entry are separate records, joined by “and”; a condition that tells them apart may be missing. Equal values may be shown once.

Tests used:
[1] = DPPH radical scavenging assay; type: biochemical; settings: mean ± SEM of three experiments
Procedure: The antioxidant potential of all target compounds (3–9) was determined using DPPH radical scavenging assay in comparison with ascorbic acid (AA) as the control treatment.
The mechanism of antioxidants as DPPH radical scavengers is based on their hydrogen-donation ability as hydrogen atoms or an electron transfer from the compound to the DPPH to form DPPH-H. The results of DPPH reduction are presented in Table 2, Figure 7.
The DPPH scavenging activity of all novel synthesized compounds (3–9) was measured as previously described (see Supplementary Materials).
1-Biological Evaluation Details: a-In-vitro Assays for biological antioxidant Activity
- DPPH scavenging method.
A 96-well plate was filled with 100 µL of the investigated compounds at various concentrations (12.5, 25, 50, 100, and 200 µg/mL ). The plate was then incubated at room temperature for 30 min while being protected from light by adding 100 µL of 100µM DPPH methanolic solution to each well. At a λ517 nm. the solution's absorbance was measured.
The positive control was ascorbic acid, and the negative control was DMSO. According to the following equation, the percentage of DPPH scavenging activity was determined:
% of DPPH scavenging = [(A control -A sample) / A control] x100. where A control is the absorbance of the control reaction (with all reagents except the test compound), and A sample is the absorbance of the test sample. Linear regression analysis was performed to calculate drug concentration showing 50% free radical inhibition activity (IC50). All tests were performed in triplicates. […]

[2] = Lipid peroxidation assay (FeCl2/H2O2-stimulated linoleic acid peroxidation); type: biochemical; settings: mean ± SEM of three experiments
[3] = Hydrogen peroxide scavenging assay; type: biochemical; settings: mean ± SEM of three experiments
Procedure: H2O2 assay is used to estimate the scavenging power of the target compounds (4–9) to H2O2.
The hydrogen peroxide (H2O2) scavenging activity of all novel synthesized compounds 3–9 was measured as previously reported (see Supplementary Materials).
1-Biological Evaluation Details: a-In-vitro Assays for biological antioxidant Activity […]
Linear regression analysis was performed to calculate drug concentration showing 50% free radical inhibition activity (IC50). All tests were performed in triplicates.
-Scavenging of hydrogen peroxide
In this method, the decay or loss of hydrogen peroxide can be quantified spectrophotometrically at 230 nm when a scavenger is incubated with it. The procedure was applied with a few changes. In phosphate buffered saline, hydrogen […]
peroxide (20 mM) solution was prepared in phosphate buffered saline (PBS, pH 7.4). In order to make different concentrations of 1 ml of the tested substances (3–9) or standards in methanol, 2 ml of hydrogen peroxide solution in PBS was added. After 10 minutes, the absorbance of H2O2 was measured at 230 nm in comparison to an ascorbic acid (AA) reference solution that contained phosphate buffer but no H2O2.
% of H2O2 scavenging = [(A control -A sample) / A control] x100. […]

[4] = target: T1, Soybean 15-LOX enzyme (Glycine max, UniProt P08170); assay: In vitro 15-lipoxygenase inhibition (Cayman Lipoxygenase Inhibitor Screening Assay Kit); type: biochemical; settings: Soybean 15-LOX, arachidonic acid substrate; mean ± SEM of three experiments
T1 construct: purchased Cayman Chemical 760700
T1 sequence (P08170 1-839): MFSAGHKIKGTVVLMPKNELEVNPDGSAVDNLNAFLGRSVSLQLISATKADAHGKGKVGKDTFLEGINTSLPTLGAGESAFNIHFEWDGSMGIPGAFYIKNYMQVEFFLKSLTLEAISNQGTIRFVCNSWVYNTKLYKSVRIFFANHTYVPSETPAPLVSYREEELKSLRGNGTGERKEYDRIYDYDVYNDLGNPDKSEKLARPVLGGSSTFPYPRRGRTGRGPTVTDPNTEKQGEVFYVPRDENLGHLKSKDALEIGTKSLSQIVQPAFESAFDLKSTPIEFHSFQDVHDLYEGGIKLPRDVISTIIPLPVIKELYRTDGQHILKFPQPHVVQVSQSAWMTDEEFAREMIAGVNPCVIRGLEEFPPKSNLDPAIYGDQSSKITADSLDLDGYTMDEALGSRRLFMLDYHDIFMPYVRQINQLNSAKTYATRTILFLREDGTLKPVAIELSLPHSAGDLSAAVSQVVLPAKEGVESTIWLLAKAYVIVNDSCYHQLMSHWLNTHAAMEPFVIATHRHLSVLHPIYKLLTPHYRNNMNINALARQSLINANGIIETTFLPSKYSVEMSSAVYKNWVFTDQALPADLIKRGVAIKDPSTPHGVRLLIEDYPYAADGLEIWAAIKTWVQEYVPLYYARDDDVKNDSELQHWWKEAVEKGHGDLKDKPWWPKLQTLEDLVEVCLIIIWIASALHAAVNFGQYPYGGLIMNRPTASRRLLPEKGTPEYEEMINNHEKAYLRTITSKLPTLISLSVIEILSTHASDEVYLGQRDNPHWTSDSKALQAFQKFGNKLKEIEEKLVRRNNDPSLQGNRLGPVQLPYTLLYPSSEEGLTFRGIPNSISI
Procedure: 90 µL of 15-LOX was pipetted into a 96-well plate quickly. The test chemical was then dissolved in DMSO in 10 µL portions at concentrations of 2.5 µM, 5.0 µM, and 10 µM and added to each well. Arachidonic acid, a 110 µL substrate, was added to start the reaction, and the plate was shaken for at least five minutes. In order to interrupt enzyme catalysis and advance the reaction, 100 µL of chromogen was added to each well and made in accordance with the manufacturer’s instructions. In blank wells, 100 µL of assay buffer (0.1 M Tris-HCl, pH 7.4) was utilized. […] The solution’s absorbance was determined at λ 490–500 nm. The percentage inhibition was calculated according to the following equation:% inhibition = [(IA − Ainhibitor sample)/IA] × 100(1) where (IA) is the 100% initial activity and (Ainhibitor sample) is the absorbance of the test sample. A dose-response curve was plotted between % inhibition and the drug concentration. The non-linear dose-response curve was used for calculating drug concentration showing 50% enzyme inhibition.

Row | Compound | DPPH IC50 [1] | Lipid Peroxidation IC50 [2] [µg/mL] | H2O2 IC50 [3] [µg/mL] | melting point [°C] | IC50 [4] [µM]
1 | O=C1O[C@H]([C@@H](O)CO)C(O)=C1O [Ascorbic acid, reference compound] | 12.80 ± 0.90 µg/mL | 36.0 ± 1.30 | 23.0 ± 1.37 |  | 
2 | CNC(=S)NN=C(C)c1cccc(NS(=O)(=O)c2c[nH]c(=S)[nH]c2=O)c1 [Compound 5a, N-{3-[(1E)-N-(methylcarbamothionyl)ethanhydrazonoyl]phenyl}-4-oxo-2-thioxo-1,2,3,4-tetrahydropyrimidine-5-sulfonamide] | 14.50 ± 0.72 µg/mL | 90.0 ± 1.45 | 41.0 ± 1.53 | 305 to 307 | 5.79 ± 0.01
3 | CCNC(=S)NN=C(C)c1cccc(NS(=O)(=O)c2c[nH]c(=S)[nH]c2=O)c1 [Compound 5b, N-{3-[(1E)-N-(ethylcarbamothionyl)ethanhydrazonoyl]phenyl}-4-oxo-2-thioxo-1,2,3,4-tetrahydropyrimidine-5-sulfonamide] | 14.70 ± 0.22 µg/mL and 14.00 ± 0.22 µg/mL | 85.0 ± 1.03 | 40.0 ± 1.32 | 310 to 312 | 5.7 ± 0.03
4 | COc1ccc(NC(=S)NN=C(C)c2cccc(NS(=O)(=O)c3c[nH]c(=S)[nH]c3=O)c2)cc1 [Compound 5c, N-{3-[(1E)-N-(4-methoxycarbamothionyl)ethanhydrazonoyl]phenyl}-4-oxo-2-thioxo-1,2,3,4-tetrahydropyrimidine-5-sulfonamides] | 9.0 ± 1.10 µg/mL | 82.0 ± 1.40 | 45.05 ± 1.34 | 307 to 309 | 5.5 ± 0.02
5 | CC(=NNC(=S)Nc1ccc(F)cc1)c1cccc(NS(=O)(=O)c2c[nH]c(=S)[nH]c2=O)c1 [Compound 5d, N-{3-[(1E)-N-(4-fluorocarbamothionyl)ethanhydrazonoyl]phenyl}-4-oxo-2-thioxo-1,2,3,4-tetrahydropyrimidine-5-sulfonamides] | 14.72 ± 1.11 µg/mL | 95.0 ± 1.42 | 47.0 ± 1.38 | 313 to 315 | 5.9 ± 0.06
6 | N#Cc1c(-c2cccc([N+](=O)[O-])c2)cc(-c2cccc(NS(=O)(=O)c3c[nH]c(=S)[nH]c3=O)c2)[nH]c1=O [Compound 6a, N-{3-[5-cyano-4-(3-nitrophenyl)-6-oxo-1,6-dihydropyridin-2-yl]phenyl}-4-oxo-2-thioxo-1,2,3,4-tetrahydropyrimidine-5-sulfonamide] | 28.0 ± 1.06 µg/mL | 45.0 ± 1.52 | 31.0 ± 1.30 | 266 to 268 | 7.85 ± 0.01
7 | N#Cc1c(-c2cccc(F)c2)cc(-c2cccc(NS(=O)(=O)c3c[nH]c(=S)[nH]c3=O)c2)[nH]c1=O [Compound 6c, N-{3-[5-cyano-4-(3-fluorophenyl)-6-oxo-1,6-dihydropyridin-2-yl]phenyl}-4-oxo-2-thioxo-1,2,3,4-tetrahydropyrimidine-5-sulfonamide] | 21.7 ± 0.7 µg/mL | 39.0 ± 1.46 | 29.0 ± 1.03 | 287 to 289 | 7.8 ± 0.02

The remaining lines, values ahead:

Row | DPPH IC50 [1] | Lipid Peroxidation IC50 [2] [µg/mL] | H2O2 IC50 [3] [µg/mL] | melting point [°C] | IC50 [4] [µM] | Compound
8 | 80.0 ± 0.70 µg/mL | >100 | >100 | 318 to 320 |  | CC(=O)c1cccc(NS(=O)(=O)c2c[nH]c(=S)[nH]c2=O)c1 [Compound 3, N-(3-Acetylphenyl)-4-oxo-2-thioxo-1,2,3,4-tetrahydropyrimidine-5-sulfonamide]
9 | 50.5 ± 0.79 µg/mL | >100 | >100 | 240 to 242 |  | O=C(C=Cc1cccc([N+](=O)[O-])c1)c1cccc(NS(=O)(=O)c2c[nH]c(=S)[nH]c2=O)c1 [Compound 4a, N-{3-[(2E)-3-(3-nitrophenyl)prop-2-enoyl]phenyl}-4-oxo-2-thioxo-1,2,3,4-tetrahydro pyrimidine-5-sulfonamide]
10 | 44.3 ± 1.67 µg/mL | >100 | 95.0 ± 1.40 | 283 to 285 |  | O=C(/C=C/c1cccc(Cl)c1)c1cccc(NS(=O)(=O)c2c[nH]c(=S)[nH]c2=O)c1 [Compound 4b, N-{3-[(2E)-3-(3-chlorophenyl)prop-2-enoyl]phenyl}-4-oxo-2-thioxo-1,2,3,4-tetra hydropyrimidine-5-sulfonamide]
11 | 43.0 ± 0.50 µg/mL | >100 | >100 | 270 to 272 |  | O=C(/C=C/c1cccc(F)c1)c1cccc(NS(=O)(=O)c2c[nH]c(=S)[nH]c2=O)c1 [Compound 4c, N-{3-[(2E)-3-(3-fluorophenyl)prop-2-enoyl]phenyl}-4-oxo-2-thioxo-1,2,3,4-tetra hydropyrimidine-5-sulfonamide]
12 | 40.0 ± 1.70 µg/mL | >100 | 80.0 ± 0.70 | 287 to 289 |  | Cc1cccc(/C=C/C(=O)c2cccc(NS(=O)(=O)c3c[nH]c(=S)[nH]c3=O)c2)c1 [Compound 4d, N-{3-[(2E)-3-(3-methylphenyl)prop-2-enoyl]phenyl}-4-oxo-2-thioxo-1,2,3,4-tetra hydropyrimidine-5-sulfonamide]
13 | 22.0 ± 1.18 µg/mL | 40.0 ± 1.63 | 30.0 ± 1.21 | 272 to 274 | 7.6 ± 0.05 | N#Cc1c(-c2cccc(Cl)c2)cc(-c2cccc(NS(=O)(=O)c3c[nH]c(=S)[nH]c3=O)c2)[nH]c1=O [Compound 6b, N-{3-[5-cyano-4-(3-chlorophenyl)-6-oxo-1,6-dihydropyridin-2-yl]phenyl}-4-oxo-2-thioxo-1,2,3,4-tetrahydropyrimidine-5-sulfonamide]
14 | 70.27 ± 1.17 µg/mL | >100 | >100 | 305 to 307 |  | O=C(CBr)c1cccc(NS(=O)(=O)c2c[nH]c(=S)[nH]c2=O)c1 [Compound 8, N-[3-(bromoacetyl)phenyl]-4-oxo-2-thioxo-1,2,3,4-tetrahydropyrimidine-5-sulfonamide]
